Assays:
[1] = Adsorption of phytate on hydroxyapatite crystals; format: physicochemical; conditions: TRIS buffer pH 7.4, stirred 8 hours
Method: Three homogenous suspensions of crystallised calcium phosphate in the form of hydroxyapatite in TRIS buffer at pH 7.4 were prepared. These suspensions were stirred for 8 hours in the presence of 1, 3 and 12 uM of phytate, respectively. Later, the suspensions were filtered and the amount of phytate adsorbed on the hydroxyapatite crystals was determined by difference between the initial and final phytate in the solution at pH 7.4.

[2] = Dissolution of hydroxyapatite previously treated with phytate at pH 7.4; format: physicochemical; conditions: 1, 6 and 12 uM phytate fixed at pH 7.4 stage; dissolution at pH 5.0 acetate buffer over 24 hours; FIG. 1
Method: FIG. 1 is a graph showing the quantity of calcium dissolved on treating hydroxyapatite, which has been previously treated with various concentrations of phytate at pH 7.4, for a period of 24 hours.
(§1) A homogenous suspension of crystalline calcium phosphate in the form of hydroxyapatite in TRIS buffer at pH 7.4 was prepared. This suspension was stirred for 8 hours. Then the crystals obtained were filtered and dried to constant weight. Then these crystals were resuspended at pH 5.0 (in acetate buffer) and the kinetics of dissolution of the salt was determined over 24 hours, continuously stirring the system. The kinetics were followed by determining the quantity of dissolved calcium and phosphorus by atomic emission spectroscopy (using inductively coupled plasma).
This experiment was repeated using concentrations of 1, 6 and 12 uM of phytate during the stage at pH 7.4 with the aim of fixing this compound on the hydroxyapatite structure.

[3] = Dissolution of hydroxyapatite in the presence of phytate at pH 5; format: physicochemical; conditions: 12 and 24 uM phytate present in pH 5 stage; over 24 hours; FIG. 2
Method: FIG. 2 is a graph showing the quantity of calcium dissolved on treating hydroxyapatite for a period of 24 hours in the presence of various concentrations of phytate at pH5.
as §1
This experiment was repeated using concentrations of 12 and 24 uM of phytate in the pH 5 stage with the aim of studying the inhibitory effect of dissolution by phytate present in the solution.

[4] = Effect of phytate consumption on bone mass, axial densitometry; format: in vivo; conditions: overall conclusion of the densitometry study
Method: A study was carried out evaluating the effect of phytate consumption on the level of bone mass measured by axial densitometry and peripheral heel densitometry. In total, 433 axial densitometer measurements and 1473 peripheral heel densitometer measurements were made. The consumption of phytate by all subjects was evaluated by using a dietetic questionnaire. Subjects were classified into 4 groups (group 1, group 2, group 3 and group 4) according to increasing levels of phytate consumption.

- phytate present in the solution remained fixed to the calcium phosphate structure (hydroxyapatite) ([1]; 1 uM phytate): 62%
- phytate present in the solution remained fixed to the calcium phosphate structure (hydroxyapatite) ([1]; 3 uM phytate): 66%
- phytate present in the solution remained fixed to the calcium phosphate structure (hydroxyapatite) ([1]; 12 uM phytate): 56%
Compound: O=P(O)(O)O[C@H]1[C@H](OP(=O)(O)O)[C@@H](OP(=O)(O)O)[C@H](OP(=O)(O)O)[C@@H](OP(=O)(O)O)[C@H]1OP(=O)(O)O [phytate, myo-inositol hexaphosphate]
- inhibition of dissolution of hydroxyapatite (dissolved calcium) [2]: capable of inhibiting the dissolution of the salt
- inhibition of dissolution of hydroxyapatite (dissolved calcium) [3]: capable of inhibiting the dissolution of the salt
- effect of consumption of a diet rich in phytate on bone mass [4]: higher bone mass

— patent publication US8377909B2, “Use of phytate as agent inhibiting dissolution of crystals of calcium salts for the prevention of osteoporosis” (Universitat de les Illes Balears, priority 2006, dated 2013)
